{"source": "ChEMBL document CHEMBL5725383", "about": "“Ethynyl derivatives” (2017)", "target": "Metabotropic glutamate receptor 4 (Homo sapiens, UniProt Q14833)", "sequence (Q14833 whole entry)": "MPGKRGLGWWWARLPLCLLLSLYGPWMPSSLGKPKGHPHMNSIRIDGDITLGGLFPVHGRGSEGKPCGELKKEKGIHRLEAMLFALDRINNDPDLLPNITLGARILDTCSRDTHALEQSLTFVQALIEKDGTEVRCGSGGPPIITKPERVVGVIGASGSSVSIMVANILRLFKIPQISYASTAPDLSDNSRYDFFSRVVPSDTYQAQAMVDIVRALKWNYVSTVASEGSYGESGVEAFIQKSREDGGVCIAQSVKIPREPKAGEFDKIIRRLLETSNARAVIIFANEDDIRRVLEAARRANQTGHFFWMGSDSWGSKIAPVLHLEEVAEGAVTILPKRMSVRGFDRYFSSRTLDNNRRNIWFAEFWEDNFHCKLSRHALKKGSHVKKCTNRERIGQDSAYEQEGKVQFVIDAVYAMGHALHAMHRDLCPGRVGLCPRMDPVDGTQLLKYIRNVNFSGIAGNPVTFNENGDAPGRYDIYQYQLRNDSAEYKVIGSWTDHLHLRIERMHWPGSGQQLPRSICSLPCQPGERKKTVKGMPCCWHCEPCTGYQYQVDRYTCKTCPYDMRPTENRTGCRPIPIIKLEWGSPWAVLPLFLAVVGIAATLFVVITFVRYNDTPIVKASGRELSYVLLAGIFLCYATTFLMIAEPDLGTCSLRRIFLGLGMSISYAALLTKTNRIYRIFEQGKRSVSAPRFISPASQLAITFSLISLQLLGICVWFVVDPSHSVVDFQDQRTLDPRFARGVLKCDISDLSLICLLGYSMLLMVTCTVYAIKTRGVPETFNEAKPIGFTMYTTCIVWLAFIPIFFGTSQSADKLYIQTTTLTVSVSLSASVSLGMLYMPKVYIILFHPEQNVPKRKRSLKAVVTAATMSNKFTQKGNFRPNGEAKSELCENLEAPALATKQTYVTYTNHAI", "assay": "Ca2+ Mobilization In Vitro Assay: About 24 hrs before an experiment, 5×10^4 cells/well were seeded in poly-D-lysine coated, black/clear-bottomed 96-well plates. The cells were loaded with 2.5 μM Fluo-4AM in loading buffer (1×HBSS, 20 mM HEPES) for 1 hr at 37° C. and washed five times with loading buffer. The cells were transferred into a Functional Drug Screening System 7000 (Hamamatsu, Paris, France), and 11 half logarithmic serial dilutions of test compound at 37° C. were added and the cells were incubated for 10-30 min. with on-line recording of fluorescence. Following this pre-incubation step, the agonist (2S)-2-amino-4-phosphonobutanoic acid (L-AP4) was added to the cells at a concentration corresponding to EC20 with on-line recording of fluorescence; in order to account for day-to-day variations in the responsiveness of cells, the EC20 of L-AP4 was determined immediately ahead of each experiment by recording of a full dose-response curve of L-AP4. Responses were measured as peak increase in fluorescence minus basal (i.e. fluorescence without addition of L-AP4), normalized to the maximal stimulatory effect obtained with saturating concentrations of L-AP4. Graphs were plotted with the % maximal stimulatory using XLfit, a curve fitting program that iteratively plots the data using Levenburg Marquardt algorithm. […]"}
{"smiles": "O=c1[nH]c2ncsc2c(=O)n1-c1c(F)cc(C#Cc2ccccc2)cc1F", "values": [{"measurement": "EC50", "result": 0.187, "unit": "µM"}]}
